Assay results published in ChEMBL document CHEMBL1201862, “PubChem BioAssay data set” (2004).
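Method: 48-hour compound exposure of cells in 96-well plates, five concentrations, linear interpolation of endpoints. GI50 marks 50% less growth.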 Active and inactive are the calls of the source. Rule as the data show it: active = GI50 up to about 1.1 µM and inactive = higher.

Assays:
Test in all cases: NCI tumour cell line growth inhibition, 48 h
[1] = test system: M14
[2] = test system: TK-10
[3] = test system: OVCAR-4
[4] = test system: SNB-19
[5] = test system: K562
[6] = test system: NCI-H522
[7] = test system: OVCAR-3
[8] = test system: COLO 205
[9] = test system: A498
[10] = test system: SF-268
[11] = test system: NCI-H23
[12] = test system: U-251
[13] = test system: SK-MEL-5
[14] = test system: HCT-116
[15] = test system: Malme-3M
[16] = test system: SK-MEL-28
[17] = test system: CAKI-1
[18] = test system: HOP-62
[19] = test system: PC-3
[20] = test system: HT-29

Row | Compound | GI50 [1] | GI50 [2] | GI50 [3] | GI50 [4] | GI50 [5] | GI50 [6] | GI50 [7] | GI50 [8] | GI50 [9] | GI50 [10] | GI50 [11] | GI50 [12] | GI50 [13] | GI50 [14] | GI50 [15] | GI50 [16] | GI50 [17] | GI50 [18] | GI50 [19] | GI50 [20]
1 | CC(C)(C)OC(=O)NCCCCC(NC(=O)c1ccccc1)C(N)=O (stereo not given) | > 100 µM (inactive) | > 100 µM (inactive) | > 100 µM (inactive) | > 100 µM (inactive) | 54.7 µM (inactive) | > 100 µM (inactive) | > 100 µM (inactive) | > 100 µM (inactive) | > 100 µM (inactive) | > 100 µM (inactive) | > 100 µM (inactive) | > 100 µM (inactive) | > 100 µM (inactive) | > 100 µM (inactive) | > 100 µM (inactive) | > 100 µM (inactive) | > 100 µM (inactive) | > 100 µM (inactive) | > 100 µM (inactive) | > 100 µM (inactive)
2 | Nc1cccc(C2CCCc3c2[nH]c2ccccc32)c1 (stereo not given) | 22.3 µM (inactive) | 32.4 µM (inactive) | 25.5 µM (inactive) | 12 µM (inactive) | 13.6 µM (inactive) | 15.8 µM (inactive) | 26.7 µM (inactive) | 19.8 µM (inactive) | 15 µM (inactive) | 17.2 µM (inactive) | 19.1 µM (inactive) | 14.6 µM (inactive) | 17.4 µM (inactive) | 13.4 µM (inactive) | 18.1 µM (inactive) | 26.5 µM (inactive) | 23.9 µM (inactive) | 30.5 µM (inactive) | 16.1 µM (inactive) | 14.6 µM (inactive)
3 | [N-]=[N+]=Nc1ccc2c(c1)Sc1ccccc1N2CCCCN1CCN(C(=O)CCNC(=O)Cc2ccc(C(=O)c3ccccc3)cc2)CC1 | 4.75 µM (inactive) | 13.2 µM (inactive) | 3.48 µM (inactive) | 8.17 µM (inactive) | 1.68 µM (inactive) | 2.45 µM (inactive) | 4.5 µM (inactive) | 3.39 µM (inactive) | 10 µM (inactive) | 3.84 µM (inactive) | 4.78 µM (inactive) | 4.23 µM (inactive) | 2.11 µM (inactive) | 3.54 µM (inactive) | 5.2 µM (inactive) | 4.81 µM (inactive) | 8.61 µM (inactive) | 8.45 µM (inactive) | 3.1 µM (inactive) | 1.98 µM (inactive)
4 | C[C@@H]1CCC2C(C)(C)C(/C=C\C=O)C3(C)OC213 (stereo not given in full) | 65.2 µM (inactive) | 72.6 µM (inactive) | 54.5 µM (inactive) | 45.4 µM (inactive) | 33.6 µM (inactive) | 46 µM (inactive) | 33.4 µM (inactive) | 25.4 µM (inactive) | > 100 µM (inactive) | 27.3 µM (inactive) | 35.6 µM (inactive) | 28.6 µM (inactive) | 20.3 µM (inactive) | 27.9 µM (inactive) | 24.5 µM (inactive) | 44 µM (inactive) | > 100 µM (inactive) | 38.9 µM (inactive) | 41.2 µM (inactive) | 26.4 µM (inactive)
5 | CN1CCCOC(c2ccc(Cl)cc2)O1 (stereo not given) | > 100 µM (inactive) | > 100 µM (inactive) | > 100 µM (inactive) | > 100 µM (inactive) | > 100 µM (inactive) | > 100 µM (inactive) | > 100 µM (inactive) | > 100 µM (inactive) | > 100 µM (inactive) | > 100 µM (inactive) | > 100 µM (inactive) | > 100 µM (inactive) | > 100 µM (inactive) | > 100 µM (inactive) | > 100 µM (inactive) | > 100 µM (inactive) | > 100 µM (inactive) | > 100 µM (inactive) | > 100 µM (inactive) | > 100 µM (inactive)
6 | O=C1CC(Nc2ccccc2)c2c(Cl)sc(Cl)c21 (stereo not given) | 1.66 µM (inactive) | 1.81 µM (inactive) | 2.01 µM (inactive) | 5.19 µM (inactive) | 1.12 µM (active) | 0.139 µM (active) | 1.79 µM (inactive) | 0.906 µM (active) | 2.5 µM (inactive) | 0.778 µM (active) | 1.91 µM (inactive) | 1.68 µM (inactive) | 4.66 µM (inactive) | 1.19 µM (inactive) | 1.42 µM (inactive) | 1.86 µM (inactive) | 0.65 µM (active) | 2.57 µM (inactive) | 1.49 µM (inactive) | 1.7 µM (inactive)
7 | O=C(COc1ccc(OCC(=O)N2C(=O)CN(c3ccccc3)C2=S)cc1)N1C(=O)CN(c2ccccc2)C1=S | > 57.9 µM (inactive) | > 54.7 µM (inactive) | 31.5 µM (inactive) | > 48.4 µM (inactive) | > 100 µM (inactive) | > 61.2 µM (inactive) | 49.3 µM (inactive) | > 100 µM (inactive) | > 56.5 µM (inactive) | > 59.4 µM (inactive) | > 56.9 µM (inactive) | > 51.6 µM (inactive) | > 25 µM (inactive) | > 61.4 µM (inactive) | > 25 µM (inactive) | > 100 µM (inactive) | > 57.7 µM (inactive) | > 53.2 µM (inactive) | > 25 µM (inactive) | > 56.9 µM (inactive)
